# Target: T1, IRAK4 (Homo sapiens, UniProt Q9NWZ3)
# T1 construct: endogenous in cells; host or cells: THP-1 cells
# T1 sequence (Q9NWZ3 1-460): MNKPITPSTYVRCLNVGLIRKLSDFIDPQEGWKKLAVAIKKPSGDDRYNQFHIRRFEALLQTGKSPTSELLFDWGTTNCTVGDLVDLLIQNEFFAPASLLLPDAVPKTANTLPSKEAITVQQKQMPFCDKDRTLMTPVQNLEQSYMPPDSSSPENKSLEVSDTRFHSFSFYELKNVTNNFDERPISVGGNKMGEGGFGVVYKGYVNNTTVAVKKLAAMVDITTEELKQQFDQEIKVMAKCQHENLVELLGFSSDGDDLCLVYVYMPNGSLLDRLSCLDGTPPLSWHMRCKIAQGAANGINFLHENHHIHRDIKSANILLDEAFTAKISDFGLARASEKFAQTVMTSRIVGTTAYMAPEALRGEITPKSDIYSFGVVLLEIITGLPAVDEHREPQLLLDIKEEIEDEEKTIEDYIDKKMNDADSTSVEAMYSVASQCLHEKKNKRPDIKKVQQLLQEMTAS
# Experiment: LVL THP1 HTRF (THP1 Homogeneous Time Resolved Fluorescence)
# Format: cell-based
# Settings: THP1 cells, 18 h incubation with compound; for DC50: read-out: LVL THP1 HTRF EC50
# Method in brief: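 IRAK4 HTRF read-out (665/615 nm ratio, anti-IRAK4 d2 acceptor and K donor, 18 h dark incubation at room temperature) on lysates of THP-1 cells. Cells were treated 18 h at 37° C. with 20 nL compound in DMSO, in colorless RPMI with 10% FBS, with a duplicate CTG plate.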
Structure (SMILES),LVL THP1 HTRF YMIN [%],DC50 [nM]
"C[C@H](C#N)Nc1cc(-n2ncc3cc(C#N)cnc32)ncc1-n1cc([C@H]2CC[C@H](CCN3CCC(c4ccc(N5CCC(=O)NC5=O)cc4)C(F)(F)C3)CC2)nn1 (single isomer, unassigned) [P-420]",1.7,26.2
"C[C@H](C#N)Nc1cc(-n2ncc3cc(C#N)cnc32)ncc1-n1cc([C@H]2CC[C@H](CCN3CCC(F)(c4ccc([C@@]5(C)CCC(=O)NC5=O)cc4)CC3)CC2)nn1 (single isomer, unassigned) [P-424]",5.3,1.9
"C[C@H](C#N)Nc1cc(-n2ncc3cc(C#N)cnc32)ncc1-n1cc([C@H]2CC[C@](O)(CCN3CCN(c4ccc([C@@]5(C)CCC(=O)NC5=O)cn4)CC3)CC2)nn1 (single isomer, unassigned) [P-426]",41.0,1000
"C[C@H](C#N)Nc1cc(-n2ncc3cc(C#N)cnc32)ncc1C(=O)N[C@H]1CC[C@H](CCN2CC[C@H]3[C@@H]2CCN3c2ccc([C@@]3(C)CCC(=O)NC3=O)cc2)CC1 (single isomer, unassigned) [P-427]",1.8,40.4
"C[C@H](C#N)Nc1cc(-n2ncc3cc(C#N)cnc32)ncc1-n1cc([C@H]2CC[C@](O)(CCN3CCN(c4ccc(N5CCC(=O)NC5=O)cc4)CC3)CC2)nn1 (single isomer, unassigned) [P-429]",5.4,59.4
"C[C@H](C#N)Nc1cc(-n2ncc3cc(C#N)c(N)nc32)ncc1-n1cc([C@H]2CC[C@H](CCN3CC[C@H]4[C@@H]3CCN4c3ccc([C@@]4(C)CCC(=O)NC4=O)cc3)CC2)nn1 (single isomer, unassigned) [P-453]",0.6,4.6
"C[C@H](C#N)Nc1cc(-n2ncc3cc(C#N)cnc32)ncc1-n1cc([C@H]2CC[C@H](CCN3CC[C@H]4[C@@H]3CCN4c3ccc([C@@]4(C)CCC(=O)NC4=O)cc3)CC2)nn1 (single isomer, unassigned) [P-454]",1.1,13.6
"C[C@H](C#N)Nc1cc(-n2ncc3cc(C#N)cnc32)ncc1-n1cc([C@H]2CC[C@H](CCN3CC[C@H]4[C@@H]3CCN4c3ccc(N4CCC(=O)NC4=O)c(F)c3)CC2)nn1 (single isomer, unassigned) [P-461]",5.4,3.7

# Further compounds by falling DC50, results first:
LVL THP1 HTRF YMIN [%],DC50 [nM],Structure (SMILES)
52.3,123,"C[C@H](C#N)Nc1cc(-n2ncc3cc(C#N)cnc32)ncc1-n1cc([C@H]2CC[C@H](CCN3CC[C@H]4[C@@H]3CCN4c3ccc([C@@]4(C)CCC(=O)NC4=O)cn3)CC2)nn1 (single isomer, unassigned) [P-435]"
10.6,29.7,"Cc1cc(N2CC[C@H]3[C@@H]2CCN3CC[C@H]2CC[C@H](c3cn(-c4cnc(-n5ncc6cc(C#N)cnc65)cc4N[C@H](C)C#N)nn3)CC2)ccc1N1CCC(=O)NC1=O (single isomer, unassigned) [P-470]"
3.3,6.1,"C[C@H](C#N)Nc1cc(-n2ncc3cc(C#N)cnc32)ncc1-n1cc([C@H]2CC[C@H](CCN3CC[C@H]4[C@@H]3CCN4c3ccc([C@@]4(C)CCC(=O)NC4=O)cc3)CC2)nn1 (single isomer, unassigned) [P-462]"
−0.4,5.5,"C[C@H](C#N)Nc1cc(-n2ncc3cc(C#N)cnc32)ncc1C(=O)N[C@H]1CC[C@H](CCN2CCC(c3ccc([C@@]4(F)CCC(=O)NC4=O)cc3)CC2)CC1 (single isomer, unassigned) [P-430]"
−7.1,0.7,"C[C@H](C#N)Nc1cc(-n2ncc3cc(C#N)cnc32)ncc1-n1cc([C@H]2CC[C@H](CCN3CC[C@H]4[C@@H]3CCN4c3ccc(N4CCC(=O)NC4=O)c(Cl)c3)CC2)nn1 (single isomer, unassigned) [P-464]"
